Experimental data taken from patent US12060347B2 (BRISTOL-MYERS SQUIBB COMPANY, priority 2016, dated 2024).
Where a name gives a salt, the structure may show the parent alone.

Biological target: T1, human PAR4 (Homo sapiens, UniProt Q96RI0)
T1 construct: expressed in transfected cells; host or cells: HEK293 PAR4 Clone 1.2A (BMS Arctic ID 383940)
T1 sequence (Q96RI0 18-385): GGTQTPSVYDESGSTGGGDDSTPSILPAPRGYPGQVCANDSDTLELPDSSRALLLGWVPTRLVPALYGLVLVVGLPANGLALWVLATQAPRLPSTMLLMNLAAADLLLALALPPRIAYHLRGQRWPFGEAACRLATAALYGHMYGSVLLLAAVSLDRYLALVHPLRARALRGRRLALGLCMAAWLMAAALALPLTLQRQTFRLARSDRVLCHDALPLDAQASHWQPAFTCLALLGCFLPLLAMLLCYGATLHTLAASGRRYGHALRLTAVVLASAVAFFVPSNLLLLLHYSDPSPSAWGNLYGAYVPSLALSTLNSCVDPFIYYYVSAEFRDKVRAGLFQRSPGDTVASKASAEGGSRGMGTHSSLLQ
Test: PAR4 FLIPR assay: antagonism of agonist-peptide-induced calcium mobilization in PAR4-expressing HEK293 cells
Format: cell-based
Details: H-Ala-Phe(4-F)-[…]NH2-induced intracellular calcium mobilization, 11-point curves

Compound	IC50 [nM]
COc1cnc2c(-c3nc4cc(F)c(OC[C@@H](C)OC(=O)Nc5cnc(CO)nc5)cc4s3)cc(C)cc2n1 [Example 496, (R)-1-((5-fluoro-2-(2-methoxy-7-methylquinoxalin-5-yl)benzo[d]thiazol-6-yl)oxy)propan-2-yl (2-(hydroxymethyl)pyrimidin-5-yl)carbamate]	1.9
COc1cnc2c(-c3nc4cc(F)c(OC[C@@H](C)OC(=O)Nc5cnc(C(C)(C)O)nc5)cc4s3)cc(C)cc2n1 [Example 497, (R)-1-((5-fluoro-2-(2-methoxy-7-methylquinoxalin-5-yl)benzo[d]thiazol-6-yl)oxy)propan-2-yl (2-(2-hydroxypropan-2-yl)pyrimidin-5-yl)carbamate]	1.3
COc1cnc2c(-c3nc4cc(F)c(OC[C@@H](C)OC(=O)Nc5ccc(C(C)(C)O)nc5)cc4s3)cc(C)cc2n1 [Example 498, (R)-1-((5-fluoro-2-(2-methoxy-7-methylquinoxalin-5-yl)benzo[d]thiazol-6-yl)oxy)propan-2-yl (6-(2-hydroxypropan-2-yl)pyridin-3-yl)carbamate]	1.3
COc1cnc2c(-c3nc4cc(F)c(O[C@@H](C)[C@@H](C)OC(=O)Nc5ccc(CO)nc5)cc4s3)cc(C)cc2n1 [Example 499, (2R,3S)-3-((5-fluoro-2-(2-methoxy-7-methylquinoxalin-5-yl)benzo[d]thiazol-6-yl)oxy)butan-2-yl (6-(hydroxymethyl)pyridin-3-yl)carbamate]	4.4
COc1cnc2c(-c3nc4cc(F)c(O[C@@H](C)[C@@H](C)OC(=O)Nc5ccc(C(C)(C)O)nc5)cc4s3)cc(C)cc2n1 [Example 500, (2R,3S)-3-((5-fluoro-2-(2-methoxy-7-methylquinoxalin-5-yl)benzo[d]thiazol-6-yl)oxy)butan-2-yl (6-(2-hydroxypropan-2-yl)pyridin-3-yl)carbamate]	3.8
COc1cnc2c(-c3nc4cc(F)c(O[C@@H](C)[C@@H](C)OC(=O)Nc5cnc(C(C)(C)O)nc5)cc4s3)cc(C)cc2n1 [Example 501, (2R,3S)-3-((5-fluoro-2-(2-methoxy-7-methylquinoxalin-5-yl)benzo[d]thiazol-6-yl)oxy)butan-2-yl (2-(2-hydroxypropan-2-yl)pyrimidin-5-yl)carbamate]	4
COc1cnc2c(-c3nc4cc(F)c(O[C@@H](C)[C@@H](C)OC(=O)Nc5cnc(CO)nc5)cc4s3)cc(C)cc2n1 [Example 502, (2R,3S)-3-((5-fluoro-2-(2-methoxy-7-methylquinoxalin-5-yl)benzo[d]thiazol-6-yl)oxy)butan-2-yl (2-(hydroxymethyl)pyrimidin-5-yl)carbamate]	1.7
COc1cnc2c(-c3nc4cc(F)c(O[C@@H](C)[C@@H](C)OC(=O)Nc5cnc(OCCO)nc5)cc4s3)cc(Cl)cc2c1 [Example 512, (2R,3S)-3-((2-(6-chloro-3-methoxyquinolin-8-yl)-5-fluorobenzo[d]thiazol-6-yl)oxy)butan-2-yl (2-(2-hydroxyethoxy)pyrimidin-5-yl)carbamate]	1.2
CCOc1cnc2c(-c3nc4cc(F)c(O[C@@H](C)[C@@H](C)OC(=O)Nc5cnc(OCCO)nc5)cc4s3)cc(Cl)cc2c1 [Example 513, (2R,3S)-3-((2-(6-chloro-3-ethoxyquinolin-8-yl)-5-fluorobenzo[d]thiazol-6-yl)oxy)butan-2-yl (2-(2-hydroxyethoxy)pyrimidin-5-yl)carbamate]	1.1
COc1cnc2c(-c3nc4cc(F)c(O[C@@H](C)[C@@H](C)OC(=O)Nc5cnc(OCCO)nc5)cc4s3)cc(C)cc2c1 [Example 514, (2R,3S)-3-((5-fluoro-2-(3-methoxy-6-methylquinolin-8-yl)benzo[d]thiazol-6-yl)oxy)butan-2-yl (2-(2-hydroxyethoxy)pyrimidin-5-yl)carbamate]	1.9
C[C@H](Oc1cc2sc(-c3cc(Cl)cc4cc(OC(F)F)cnc34)nc2cc1F)[C@@H](C)OC(=O)Nc1cnc(OCCO)nc1 [Example 515, (2R,3S)-3-((2-(6-chloro-3-(difluoromethoxy)quinolin-8-yl)-5-fluorobenzo[d]thiazol-6-yl)oxy)butan-2-yl (2-(2-hydroxyethoxy)pyrimidin-5-yl)carbamate]	2.6
CC[C@H](COc1cc2sc(-c3cc(C)cc4nc(OC)cnc34)nc2cc1F)OC(=O)Nc1cccnc1 [Example 517, (R)-1-((5-fluoro-2-(2-methoxy-7-methylquinoxalin-5-yl)benzo[d]thiazol-6-yl)oxy)butan-2-yl pyridin-3-ylcarbamate]	1.1
COc1cnc2c(-c3nc4c(Cl)c(F)c(OCCCC(=O)Nc5cccnc5)cc4s3)cc(C)cc2n1 [Example 518, 4-((4-chloro-5-fluoro-2-(2-methoxy-7-methylquinoxalin-5-yl)benzo[d]thiazol-6-yl)oxy)-N-(pyridin-3-yl)butanamide]	13
COc1cnc2c(-c3nc4c(Cl)c(F)c(OCCNC(=O)Nc5cccnc5)cc4s3)cc(C)cc2n1 [Example 519, 1-(2-((4-chloro-5-fluoro-2-(2-methoxy-7-methylquinoxalin-5-yl)benzo[d]thiazol-6-yl)oxy)ethyl)-3-(pyridin-3-yl)urea]	16
COc1cnc2c(-c3nc4c(Cl)c(F)c(OCCN(C)C(=O)Nc5cnc(C)nc5)cc4s3)cc(C)cc2n1 [Example 520, 1-(2-((4-chloro-5-fluoro-2-(2-methoxy-7-methylquinoxalin-5-yl)benzo[d]thiazol-6-yl)oxy)ethyl)-1-methyl-3-(2-methylpyrimidin-5-yl)urea]	77
COc1cnc2c(-c3nc4cc(F)c(O[C@@H](C)[C@@H](C)OC(=O)Nc5ccc(CN6CCOCC6)nc5)cc4s3)cc(C)cc2n1 [Example 521, (2R,3S)-3-((5-fluoro-2-(2-methoxy-7-methylquinoxalin-5-yl)benzo[d]thiazol-6-yl)oxy) butan-2-yl (6-(morpholinomethyl)pyridin-3-yl)carbamate]	24
Cc1cc(-c2nc3cc(F)c(O[C@@H](C)[C@@H](C)OC(=O)Nc4cnc(C)nc4)cc3s2)c2ncc(N(C)C)nc2c1 [Example 522, (2R,3S)-3-((2-(2-(dimethylamino)-7-methylquinoxalin-5-yl)-5-fluorobenzo[d]thiazol-6-yl)oxy)butan-2-yl (2-methylpyrimidin-5-yl)carbamate]	20
COc1cnc2c(-c3nc4cc(F)c(O[C@@H](C)[C@@H](C)OC(=O)Nc5ccc(C(=O)O)nc5)cc4s3)cc(C)cc2n1 [Example 523, 5-(((((2R,3S)-3-((5-fluoro-2-(2-methoxy-7-methylquinoxalin-5-yl)benzo[d]thiazol-6-yl)oxy)butan-2-yl)oxy)carbonyl)amino)picolinic acid, TFA]	2.6
COc1cnc2c(-c3nc4cc(F)c(O[C@@H](C)[C@@H](C)OC(N)=O)cc4s3)cc(C)cc2n1 [Example 524, (2R,3S)-3-((5-fluoro-2-(2-methoxy-7-methylquinoxalin-5-yl)benzo[d]thiazol-6-yl)oxy) butan-2-yl carbamate]	84
CCOc1cnc2c(-c3nc4cc(F)c(O[C@@H](C)[C@@H](C)OC(=O)Nc5ccc(CCO)nc5)cc4s3)cc(C)cc2n1 [Example 526, (2R,3S)-3-((2-(2-ethoxy-7-methylquinoxalin-5-yl)-5-fluorobenzo[d]thiazol-6-yl)oxy)butan-2-yl (6-(2-hydroxyethyl)pyridin-3-yl)carbamate]	2
CCOc1cnc2c(-c3nc4cc(F)c(O[C@@H](C)[C@@H](C)OC(=O)Nc5ccc(C(=O)NCC(C)(C)O)nc5)cc4s3)cc(C)cc2n1 [Example 527, (2R,3S)-3-((2-(2-ethoxy-7-methylquinoxalin-5-yl)-5-fluorobenzo[d]thiazol-6-yl)oxy)butan-2-yl (6-((2-hydroxy-2-methylpropyl)carbamoyl)pyridin-3-yl)carbamate]	1.4
[2H]C([2H])(O)c1ncc(NC(=O)O[C@H](C)[C@H](C)Oc2cc3sc(-c4cc(C)cc5nc(OC)cnc45)nc3cc2F)cn1 [Example 528, (2R,3S)-3-((5-fluoro-2-(2-methoxy-7-methylquinoxalin-5-yl)benzo[d]thiazol-6-yl)oxy)butan-2-yl (2-(hydroxymethyl)pyrimidin-5-yl)carbamate]	5
CCOc1cnc2c(-c3nc4cc(F)c(O[C@@H](C)[C@@H](C)OC(=O)Nc5cnc(CO)nc5)cc4s3)cc(C)cc2n1 [Example 529, (2R,3S)-3-((2-(2-ethoxy-7-methylquinoxalin-5-yl)-5-fluorobenzo[d]thiazol-6-yl)oxy)butan-2-yl (2-(hydroxymethyl)pyrimidin-5-yl)carbamate]	0.9
COc1cnc2c(-c3nc4cc(F)c(OC[C@@H](C)OC(=O)Nc5ccc(C(=O)NCC(C)(C)OP(=O)(O)O)nc5)cc4s3)cc(C)cc2n1 [Example 530, (R)-1-((5-fluoro-2-(2-methoxy-7-methylquinoxalin-5-yl)benzo[d]thiazol-6-yl)oxy) propan-2-yl (6-((2-methyl-2-(phosphonooxy)propyl)carbamoyl)pyridin-3-yl)carbamate, TFA]	1.8
CCOc1cnc2c(-c3nc4cc(F)c(O[C@@H](C)[C@@H](C)OC(=O)Nc5ccc(C(=O)NC[C@H](C)O)nc5)cc4s3)cc(C)cc2n1 [Example 531, (2R,3S)-3-((2-(2-ethoxy-7-methylquinoxalin-5-yl)-5-fluorobenzo[d]thiazol-6-yl)oxy)butan-2-yl (6-(((S)-2-hydroxypropyl)carbamoyl)pyridin-3-yl)carbamate, TFA]	0.7
